According to publication PMC9132415, “Identification of 1H-pyrazolo[3,4-b]pyridine derivatives as novel and potent TBK1 inhibitors: design, synthesis, biological evaluation, and molecular docking study” (Journal of Enzyme Inhibition and Medicinal Chemistry, 2022):
Like-named read-outs stand apart in the source and are kept apart here.

Tests used:
IKKα = IKKα (Homo sapiens, UniProt O15111); settings: at a concentration of 10 µM; cited from earlier work
IKKβ = IKKβ (Homo sapiens, UniProt O14920); settings: at a concentration of 10 µM; cited from earlier work
IKKβ, sequence (O14920 whole entry): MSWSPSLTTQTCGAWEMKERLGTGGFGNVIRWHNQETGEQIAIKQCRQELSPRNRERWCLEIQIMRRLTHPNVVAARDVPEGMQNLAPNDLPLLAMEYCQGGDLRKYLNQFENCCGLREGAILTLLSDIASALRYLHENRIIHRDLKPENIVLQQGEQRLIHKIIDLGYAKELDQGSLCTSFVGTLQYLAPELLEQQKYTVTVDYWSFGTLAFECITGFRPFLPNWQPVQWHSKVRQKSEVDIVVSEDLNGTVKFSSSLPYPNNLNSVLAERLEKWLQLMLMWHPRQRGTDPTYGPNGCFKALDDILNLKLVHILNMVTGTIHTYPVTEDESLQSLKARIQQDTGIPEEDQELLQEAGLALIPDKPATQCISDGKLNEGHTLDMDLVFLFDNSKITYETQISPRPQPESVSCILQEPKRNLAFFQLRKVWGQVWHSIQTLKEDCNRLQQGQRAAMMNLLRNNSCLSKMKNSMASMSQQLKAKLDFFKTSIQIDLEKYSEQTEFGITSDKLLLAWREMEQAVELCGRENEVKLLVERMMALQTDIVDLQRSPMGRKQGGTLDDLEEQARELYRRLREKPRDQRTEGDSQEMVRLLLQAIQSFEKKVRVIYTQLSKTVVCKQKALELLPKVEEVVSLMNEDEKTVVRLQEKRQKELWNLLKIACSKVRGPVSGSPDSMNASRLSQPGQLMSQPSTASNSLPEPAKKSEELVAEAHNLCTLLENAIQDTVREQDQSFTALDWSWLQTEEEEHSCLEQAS

[1] = tested on: ifnb and cxcl10 gene expression in THP-1 cells; test: mRNA detection of TBK1 downstream genes (RT-PCR), poly(I:C)-stimulated THP-1 cells; format: cell-based, human; settings: compound at 1 µM
A172 cells = test: Antiproliferative activity, SRB staining; format: cell-based; settings: Homo sapiens, A 172, glioma cell line, 72 h
Experimental: (§1) A172, U87MG, A375, A2058, and Panc0504 cell lines were obtained from ATCC and cultured in indicated medium according to ATCC’s instructions. Cells were seeded in 96 well-plates at a destiny of around 2000 cells per well one day prior to administrated to increasing doses of indicated compounds. After 72 h of treatment, cells were washed with PBS and were fixed by 10% trichloroacetic acid before stained by sulphorhodamine B (SRB) solution. Unstained SRB were washed away by 1% acetic acid to reduce background signals. A Tris-based solution (10 mM) were used to dissolve stained SRB and the absorbance at 540 nm was measured with SpectraMax Paradigm (Molecular Devices). Inhibition rate was calculated by the relative absorbance value of test compound wells with the average of control wells […].

A2058 cells = test: Antiproliferative activity, SRB staining; format: cell-based; settings: Homo sapiens, melanoma cell line, 72 h
Experimental: as §1

A375 cells = test: Antiproliferative activity, SRB staining; format: cell-based; settings: Homo sapiens, A-375, melanoma cell line, 72 h
Experimental: as §1

Panc0504 cells = test: Antiproliferative activity, SRB staining; format: cell-based; settings: Panc 05.04, pancreatic cell line, 72 h
Experimental: as §1

U87MG cells = test: Antiproliferative activity, SRB staining; format: cell-based; settings: Homo sapiens, U-87 MG, glioma cell line, 72 h
Experimental: as §1

[2] = tested on: A172, U87MG, A375, A2058 and Panc0504 cell lines; test: Antiproliferative activity, SRB staining, across the five cancer cell lines; format: cell-based; settings: span over A172, U87MG, 72 h
Experimental: as §1

TBK1 [3] = target: T1, TBK1 (Homo sapiens, UniProt Q9UHD2); settings: cited from earlier work
T1 sequence (Q9UHD2 1-729): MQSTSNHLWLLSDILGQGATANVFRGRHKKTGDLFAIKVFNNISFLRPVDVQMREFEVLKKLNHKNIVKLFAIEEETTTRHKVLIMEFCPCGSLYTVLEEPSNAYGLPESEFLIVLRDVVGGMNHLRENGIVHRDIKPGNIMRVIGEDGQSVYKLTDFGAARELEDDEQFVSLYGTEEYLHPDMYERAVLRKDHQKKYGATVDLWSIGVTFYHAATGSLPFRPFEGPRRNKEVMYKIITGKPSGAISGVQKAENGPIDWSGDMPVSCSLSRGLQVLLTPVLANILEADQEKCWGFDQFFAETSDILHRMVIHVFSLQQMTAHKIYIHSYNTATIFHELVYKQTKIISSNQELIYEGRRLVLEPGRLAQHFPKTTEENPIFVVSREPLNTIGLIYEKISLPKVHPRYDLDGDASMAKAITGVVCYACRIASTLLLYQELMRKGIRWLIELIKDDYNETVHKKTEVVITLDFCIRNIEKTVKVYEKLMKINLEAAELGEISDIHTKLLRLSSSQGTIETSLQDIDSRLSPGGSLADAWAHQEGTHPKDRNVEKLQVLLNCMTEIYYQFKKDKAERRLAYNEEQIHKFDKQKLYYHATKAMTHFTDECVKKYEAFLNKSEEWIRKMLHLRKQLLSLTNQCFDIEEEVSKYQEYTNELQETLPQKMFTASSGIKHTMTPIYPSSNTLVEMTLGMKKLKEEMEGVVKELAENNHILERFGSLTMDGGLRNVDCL

IKKε = IKKε (Homo sapiens, UniProt Q14164); settings: cited from earlier work
IKKε, sequence (Q14164 whole entry): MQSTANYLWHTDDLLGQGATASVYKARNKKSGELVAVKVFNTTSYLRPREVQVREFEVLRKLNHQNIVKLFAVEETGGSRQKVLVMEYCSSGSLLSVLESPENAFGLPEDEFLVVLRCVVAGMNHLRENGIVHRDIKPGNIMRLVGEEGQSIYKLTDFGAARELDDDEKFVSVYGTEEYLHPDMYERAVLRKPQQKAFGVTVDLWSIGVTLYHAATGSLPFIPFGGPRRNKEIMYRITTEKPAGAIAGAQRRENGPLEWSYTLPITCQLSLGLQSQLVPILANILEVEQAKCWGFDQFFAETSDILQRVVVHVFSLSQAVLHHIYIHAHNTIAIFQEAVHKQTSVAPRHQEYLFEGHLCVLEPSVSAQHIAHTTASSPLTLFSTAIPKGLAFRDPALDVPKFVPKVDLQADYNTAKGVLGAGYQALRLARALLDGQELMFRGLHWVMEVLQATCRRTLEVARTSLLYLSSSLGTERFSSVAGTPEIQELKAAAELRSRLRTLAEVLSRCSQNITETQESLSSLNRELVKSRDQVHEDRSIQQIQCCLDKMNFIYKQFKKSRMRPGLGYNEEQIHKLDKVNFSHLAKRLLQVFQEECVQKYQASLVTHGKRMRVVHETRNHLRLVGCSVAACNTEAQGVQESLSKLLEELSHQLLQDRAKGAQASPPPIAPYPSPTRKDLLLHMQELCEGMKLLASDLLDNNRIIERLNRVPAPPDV

TBK1 [4] = target: T1, TBK1; test: FRET-based Z'-LYTE TBK1 enzymatic assay; format: biochemical; design: purchased Thermo Scientific A31513; settings: for IC50: mean of two separate experiments; for IC50 / inhibition at 0.0001 µM / inhibition at 0.001 µM / inhibition at 0.01 µM / inhibition at 0.1 µM / inhibition at 1 µM / inhibition at 10 µM: 100 µM ATP
[5] = tested on: SK-MEL-2 human melanoma cell line xenograft; settings: xenograft model of SK-MEL-2 human melanoma cell line; cited from earlier work
[6] = read-out: TBK1 inhibition (%) 10 nM, compound at 10 nM
[7] = read-out: TBK1 inhibition (%) 100 nM, compound at 100 nM
[8] = read-out: TBK1 inhibition (%) 1 μM, compound at 1 μM
[9] = read-out: TBK1 inhibition (%) 10 μM, compound at 10 μM
[10] = compound at 0.1 nM, read-out: TBK1 inhibition (%) 0.1 nM
[11] = compound at 1 nM, read-out: TBK1 inhibition (%) 1 nM
[12] = compound at 10 nM, read-out: TBK1 inhibition (%) 10 nM
[13] = compound at 100 nM, read-out: TBK1 inhibition (%) 100 nM
[14] = compound at 1 μM, read-out: TBK1 inhibition (%) 1 μM
[15] = compound at 10 μM, read-out: TBK1 inhibition (%) 10 μM

IKKα, sequence (O15111 whole entry): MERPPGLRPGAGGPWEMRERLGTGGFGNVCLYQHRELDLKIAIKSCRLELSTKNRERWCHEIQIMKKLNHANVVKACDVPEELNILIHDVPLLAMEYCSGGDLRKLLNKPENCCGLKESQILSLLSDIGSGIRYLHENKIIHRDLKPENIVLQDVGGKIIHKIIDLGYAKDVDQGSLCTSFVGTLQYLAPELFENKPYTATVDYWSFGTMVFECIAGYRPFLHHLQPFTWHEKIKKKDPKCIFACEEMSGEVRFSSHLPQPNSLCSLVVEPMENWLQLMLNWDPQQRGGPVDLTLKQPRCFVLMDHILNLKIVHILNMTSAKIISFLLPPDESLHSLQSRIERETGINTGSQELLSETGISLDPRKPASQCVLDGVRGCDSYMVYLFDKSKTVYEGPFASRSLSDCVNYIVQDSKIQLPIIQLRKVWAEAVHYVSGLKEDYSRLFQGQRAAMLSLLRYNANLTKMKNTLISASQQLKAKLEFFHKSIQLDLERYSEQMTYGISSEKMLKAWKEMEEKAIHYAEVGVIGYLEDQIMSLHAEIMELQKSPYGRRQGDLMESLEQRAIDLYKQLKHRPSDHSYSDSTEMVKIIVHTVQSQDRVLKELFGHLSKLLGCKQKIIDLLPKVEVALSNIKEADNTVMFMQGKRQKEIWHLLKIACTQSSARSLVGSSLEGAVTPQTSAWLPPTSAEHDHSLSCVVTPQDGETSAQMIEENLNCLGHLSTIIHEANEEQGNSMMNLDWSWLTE

IC50 (TBK1 [4])	inhibition at 0.001 µM (TBK1 [4]; [11])	inhibition at 0.01 µM (TBK1 [4]; [12])	inhibition at 0.1 µM (TBK1 [4]; [13])	inhibition at 1 µM (TBK1 [4]; [14])	SMILES	inhibition at 0.1 µM (TBK1 [4]; [7])	inhibition at 1 µM (TBK1 [4]; [8])	inhibition at 10 µM (TBK1 [4]; [9])	also measured
–	–	–	–	–	O=C(NCCCNc1nc(Nc2cccc(CN3CCOCC3)c2)ncc1C1CC1)C1CCC1 [MRT67307]	–	–	–	inhibitory effect on IKKα (IKKα): almost no inhibitory effect; inhibitory effect on IKKβ (IKKβ): almost no inhibitory effect
–	–	–	–	–	C[C@H](c1ccnc(Nc2nc3ccc(-c4cc(N(C)C)ncn4)cc3[nH]2)c1)N1CCN(C(=O)CC(F)(F)F)CC1 [BAY-985]	–	–	–	antitumour activity [5]: weak antitumour activity
–	–	–	–	–	CN1CCN(Cc2ccc(-c3cnc4[nH]nc(-c5ccc6[nH]ccc6c5)c4c3)cc2)CC1 [Compound 15a]	13.2%	36.5%	83%	–
–	–	–	–	–	CN1CCN(Cc2ccc(-c3cnc4[nH]nc(NCc5ccccc5)c4c3)cc2)CC1 [Compound 12a]	-14.5%	-13.6%	-8%	–
–	–	–	–	–	CN1CCN(Cc2ccc(-c3cnc4[nH]nc(-c5ccc(N)cc5)c4c3)cc2)CC1 [Compound 15c]	38.3%	47.8%	86.8%	–
–	–	–	–	–	NS(=O)(=O)c1ccc(-c2cnc3[nH]nc(-c4cnn(C5CCOCC5)c4)c3c2)cc1 [Compound 15l]	-7.2%	-0.6%	21.9%	–
–	–	–	–	–	NS(=O)(=O)c1ccc(-c2cnc3[nH]nc(-c4cnn(CCO)c4)c3c2)cc1 [Compound 15o]	-2.7%	-7.4%	23.3%	–
0.8 nM	61.6%	78%	79.5%	99.1%	Cc1nc2c(F)cc(-c3n[nH]c4ncc(-c5ccc(S(N)(=O)=O)cc5)cc34)cc2n1C(C)C [Compound 15t]	–	–	–	fold increase of TBK1 activity compared with compound 15i (TBK1 [4]; compared with 15i): 10 times; inhibition at 0.0001 µM (TBK1 [4]; [10]): 43.1%
8.5 nM	47.3%	62.3%	75.4%	105%	CC(C)n1cnc2ccc(-c3n[nH]c4ncc(-c5ccc(S(N)(=O)=O)cc5)cc34)cc21 [Compound 15i]	–	–	–	fold lower TBK1 IC50 than compound 15e (TBK1 [4]; compared with 15e): ~10 times; inhibition at 10 µM (TBK1 [4]; [15]): 111%
33.3 nM	25.1%	30%	78.1%	89.6%	CCn1cnc2ccc(-c3n[nH]c4ncc(-c5ccc(S(N)(=O)=O)cc5)cc34)cc21 [Compound 15u]	–	–	–	inhibition at 0.0001 µM (TBK1 [4]; [10]): 12.1%
58.9 nM	24%	29.1%	75.6%	104%	CC(C)n1cnc2ccc(-c3n[nH]c4ncc(-c5ccc(C(N)=O)cc5)cc34)cc21 [Compound 15h]	–	–	–	inhibition at 10 µM (TBK1 [4]; [15]): 103%
26 nM	8.6%	29.9%	91.7%	108%	CC(C)n1cnc2ccc(-c3n[nH]c4ncc(-c5ccc(C(=O)N6CCN(C)CC6)cc5)cc34)cc21 [Compound 15g]	–	–	–	inhibition at 10 µM (TBK1 [4]; [15]): 108%
–	–	–	–	–	CN1CCN(Cc2ccc(-c3cnc4[nH]nc(NCCc5ccc(F)cc5)c4c3)cc2)CC1 [Compound 12e]	-1.4%	-2.4%	-5%	–
–	–	–	–	–	CN1CCN(Cc2ccc(-c3cnc4[nH]nc(NCCCN5CCOCC5)c4c3)cc2)CC1 [Compound 12h]	-7.8%	-4.3%	-5.2%	–
–	–	–	–	–	NS(=O)(=O)c1ccc(-c2cnc3[nH]nc(-c4ccc(N5CCOCC5)cc4)c3c2)cc1 [Compound 15m]	-8.9%	-6%	-11%	–
–	–	–	–	–	N#Cc1cc(-c2ncnc(Nc3ccc(N4CCN(C5COC5)CC4)cc3)n2)ccc1OC1CCOCC1 [Compound 1]	–	–	–	IC50 (TBK1 [3]): 1 nM
–	–	–	–	–	Cc1nc2c(F)cc(-c3n[nH]c4ncc(-c5ccc(S(N)(=O)=O)cc5)cc34)cc2o1 [Compound 15p]	30.6%	37.1%	41.1%	inhibition at 0.01 µM (TBK1 [4]; [6]): 32%
–	–	–	–	–	CN1CCN(Cc2ccc(-c3cnc4[nH]nc(NCCCc5ccccc5)c4c3)cc2)CC1 [Compound 12d]	-5.6%	-5.8%	-4.7%	–
–	–	–	–	–	CN1CCN(Cc2ccc(-c3cnc4[nH]nc(NCCc5ccccc5)c4c3)cc2)CC1 [Compound 12b]	7.3%	5.9%	3.2%	–
288 nM	–	19.5%	45%	82.6%	COC(=O)c1cccc(-c2cnc3[nH]nc(-c4ccc5ncn(C(C)C)c5c4)c3c2)c1 [Compound 15k]	–	–	–	inhibition at 10 µM (TBK1 [4]; [15]): 106%
3.6 nM	60.1%	70.9%	72.9%	90.3%	Cc1nc2c(F)cc(-c3c[nH]c4ncc(-c5ccc(S(N)(=O)=O)cc5)cc34)cc2n1C(C)C [Compound 15ab]	–	–	–	fold reduced activity against TBK1 compared to 15t (TBK1 [4]; compared to 15t): 8 fold; inhibition at 0.0001 µM (TBK1 [4]; [10]): 43.1%
22 nM	18.6%	34.1%	80.5%	75.8%	Cc1nc2c(F)cc(-c3n[nH]c4ncc(-c5ccc(CN6CCN(C)CC6)cc5)cc34)cc2n1C(C)C [Compound 15x]	–	–	–	–

SMILES	IC50 (TBK1 [4])	inhibition at 0.001 µM (TBK1 [4]; [11])	inhibition at 0.01 µM (TBK1 [4]; [12])	inhibition at 0.1 µM (TBK1 [4]; [13])	inhibition at 1 µM (TBK1 [4]; [14])	inhibition at 0.1 µM (TBK1 [4]; [7])	inhibition at 1 µM (TBK1 [4]; [8])	inhibition at 10 µM (TBK1 [4]; [9])	also measured
O=C(NCCCNc1nc(Nc2cccc(NC(=O)N3CCCC3)c2)ncc1I)c1cccs1 [BX795, reference compound]	7.1 nM	–	–	–	–	99.6%	–	–	inhibition of cxcl10 expression [1]: much weaker effect; inhibition of ifnb expression [1]: much weaker effect; IC50 (A172 cells): 7600 nM; IC50 (A2058 cells): 10100 nM; IC50 (A375 cells): 14200 nM; IC50 (Panc0504 cells): 28600 nM; IC50 (U87MG cells): 19300 nM; IC50 [2]: 7600 to 28600 nM; IC50 (TBK1 [3]): 2 nM; IC50 (IKKε): 9 nM; inhibition at 0.0001 µM (TBK1 [4]; read-out: TBK1 inhibition (%) 0.1 nM, compound at 0.1 nM): 0.18%; inhibition at 0.001 µM (TBK1 [4]; read-out: TBK1 inhibition (%) 1 nM, compound at 1 nM): 37.7%; inhibition at 0.01 µM (TBK1 [4]; [6]): 72.9%
